Experimental data taken from ChEMBL document CHEMBL1201862, “PubChem BioAssay data set” (2004).
Active and inactive are the calls of the source.

Assays:
[1] = molecular target: Glutathione-S-transferase (Schistosoma japonicum, UniProt Q26513); test: GST-antibody interaction or FRET quenching – biochemical, TR-FRET, artefact control for Vif-APOBEC3G degradation inhibitor project, dose response (AID 1117362); format: functional
[2] = HIV-1 Vif–A3G interaction blockers – biochemical, TR-FRET, GST-Vif 1-94, biotin-A3G peptide, dose response retest, primary screen (AID 1117319); format: functional;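 also: TR-FRET signal of purified GST-Vif binding a biotinylated A3G peptide; inhibitors lower the FRET signal by blocking Vif and A3G binding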
[3] = Luminescence-based cell-based high throughput dose response assay to identify activators of the DAF-12 from the parasite S. stercoralis (ssDAF-12).; format: functional
[4] = molecular target: T1, Oxysterols receptor LXR-beta (Homo sapiens, UniProt P55055); test: LXR agonists, Gal4 luciferase reporter, dose response, counter-screen for ssDAF-12 agonist project, cell-based, luminescence, HEK293, S. stercoralis campaign (AID 720737); format: functional; conditions: read-out: IC50 (the source's name)
T1 sequence (P55055 whole entry): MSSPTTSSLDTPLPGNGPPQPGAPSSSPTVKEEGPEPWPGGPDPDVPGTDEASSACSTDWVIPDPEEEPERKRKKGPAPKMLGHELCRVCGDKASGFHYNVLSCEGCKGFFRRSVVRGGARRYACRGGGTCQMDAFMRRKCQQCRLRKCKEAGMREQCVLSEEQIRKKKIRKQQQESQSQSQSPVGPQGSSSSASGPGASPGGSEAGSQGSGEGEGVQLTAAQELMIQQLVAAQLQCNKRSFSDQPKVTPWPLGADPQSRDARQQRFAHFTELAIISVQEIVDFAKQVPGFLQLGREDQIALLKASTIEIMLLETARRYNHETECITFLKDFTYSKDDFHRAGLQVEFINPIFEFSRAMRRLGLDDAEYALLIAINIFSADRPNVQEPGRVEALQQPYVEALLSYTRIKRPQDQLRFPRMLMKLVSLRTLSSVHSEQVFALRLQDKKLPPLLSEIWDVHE

[5] = antimalarial activity against Dd2 parasites – SYBR Green fluorescence, erythrocytes, dry powder, set 2, dose response (AID 1159574); format: functional, cell-based
[6] = molecular target: RNA-editing ligase 1, mitochondrial (Trypanosoma brucei brucei, UniProt P86926); test: inhibition of trypanosome RNA editing ligase – biochemical, fluorescence, Trypanosoma brucei, dose response (AID 1117295); format: functional
[7] = Dd2 parasite growth inhibition in erythrocytes – SYBR Green, dry powder samples, set 9, dose response (AID 1159568); format: functional, cell-based
[8] = growth inhibition of yeast DHODH-expressing 3D7 parasites – SYBR Green, dry powder samples, dose response (AID 1159570); format: functional, cell-based;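 also: parasite growth measured after 72 hours of compound exposure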
[9] = growth inhibition of PfATP4-mutant resistant parasites – NITD609-resistant line, SYBR Green, dry powder, dose response (AID 1159571); format: functional, cell-based;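 also: parasites synchronized at ring stage by sorbitol before testing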
[10] = P. falciparum Dd2 growth inhibitors, dose response, SYBR Green, cherry-picked samples (AID 1159567); format: functional, cell-based
[11] = toxicity to human HepG2 hepatoma cells – cell-based, plate reader, dry powder samples, cytotoxicity control, dose response (AID 1159569); format: functional;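 also: inhibitor potency with signal falling toward the positive control level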
[12] = Dd2 malaria parasite growth inhibition potency – SYBR Green, dry powder samples, dose response (AID 1159566); format: functional, cell-based;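 also: potency for growth inhibition with lower SYBR green DNA signal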
[13] = TB: CFU replicating Measured in Microorganism System Using Imaging - 7108-05_Inhibitor_Dose_DryPowder_Activity_Set2.; format: functional
[14] = cytotoxicity toward HT-29 cells – cell-based, CellTiter-Glo luminescence, IC50, dose response (AID 1117330); format: functional
[15] = microbe, parasite or virus in culture; format: functional; conditions: Mycobacterium tuberculosis
[16] = CellTiter-Glo luminescence survival assay, SW480 colon tumor line, concentration-response curve, half-maximal inhibitory concentration (AID 1117338); format: functional
[17] = RKO cell viability reduction, dose response, CellTiter-Glo luminescence (AID 1117322); format: functional
[18] = molecular target: T2, Ubiquitin-conjugating enzyme E2 N (Homo sapiens, UniProt P61088); format: functional;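 also: Dose-response confirmation in a TR-FRET assay detecting UBC13-driven polyubiquitin chain formation, inhibition measured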
T2 sequence (P61088 whole entry): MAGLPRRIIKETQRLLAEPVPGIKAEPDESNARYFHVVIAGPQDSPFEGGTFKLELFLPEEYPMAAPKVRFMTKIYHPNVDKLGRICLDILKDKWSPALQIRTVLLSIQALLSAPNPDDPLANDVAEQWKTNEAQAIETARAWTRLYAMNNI

[19] = Reduced DLD-1 viability, concentration-response, CellTiter-Glo luminescence (AID 1117352); format: functional
[20] = SNU-C1 cell viability reduction, dose response, CellTiter-Glo luminescence (AID 1117323); format: functional, cell-based
[21] = glucagon-like peptide-1 release potency in STC-1, concentration-response, half-maximal inhibitory concentration in the STC-1 line (AID 1117345); format: functional, cell-based
[22] = cytotoxicity toward Colo320 cells – cell-based, CellTiter-Glo luminescence, IC50, dose response (AID 1117334); format: functional; conditions: COLO 320
[23] = Potency on glucagon-like peptide 1 release, dose-response in NCI-H716 cell line, half maximal inhibitory concentration (AID 1117344); format: functional, cell-based
[24] = cytotoxicity toward HCT116 cells – cell-based, CellTiter-Glo luminescence, IC50, dose response (AID 1117332); format: functional; conditions: HCT-116
[25] = HCT116 cell viability decrease, GSK3B pretreatment – CellTiter-Glo, IC50, dose response (AID 1117339); format: functional; conditions: HCT-116
[26] = molecular target: Heat shock protein HSP 90-alpha (Homo sapiens, UniProt P07900); format: functional, organism-based
[27] = rise of 2N DNA cells, HeLa – IC50, dose response (AID 1117349); format: functional, cell-based
[28] = rise of 4N DNA cells, HeLa – IC50, dose response (AID 1117351); format: functional, cell-based

RNA-editing ligase 1, mitochondrial, sequence (P86926 whole entry): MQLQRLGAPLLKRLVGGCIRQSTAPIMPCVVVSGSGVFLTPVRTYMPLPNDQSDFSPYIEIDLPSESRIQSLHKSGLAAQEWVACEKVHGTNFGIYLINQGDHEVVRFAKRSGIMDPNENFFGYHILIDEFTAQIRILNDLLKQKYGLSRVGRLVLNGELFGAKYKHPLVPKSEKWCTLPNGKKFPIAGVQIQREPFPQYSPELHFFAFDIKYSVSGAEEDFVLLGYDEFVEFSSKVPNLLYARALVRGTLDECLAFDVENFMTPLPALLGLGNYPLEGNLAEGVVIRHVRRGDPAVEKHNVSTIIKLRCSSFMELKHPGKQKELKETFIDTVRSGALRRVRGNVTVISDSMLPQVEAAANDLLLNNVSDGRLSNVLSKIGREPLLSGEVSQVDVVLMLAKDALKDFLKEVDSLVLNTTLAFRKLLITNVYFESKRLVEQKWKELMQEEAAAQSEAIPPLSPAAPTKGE
Glutathione-S-transferase, sequence (Q26513 whole entry): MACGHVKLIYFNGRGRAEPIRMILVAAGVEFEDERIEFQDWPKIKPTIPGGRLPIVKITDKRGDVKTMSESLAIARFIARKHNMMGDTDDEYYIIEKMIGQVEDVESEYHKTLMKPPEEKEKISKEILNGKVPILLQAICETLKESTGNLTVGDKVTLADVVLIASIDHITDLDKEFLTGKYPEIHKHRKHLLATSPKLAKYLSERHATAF

In the case of `CCN1CCN(c2ccc(NC(=O)Cc3ccccc3)cc2)CC1`, the IC50 [1] is reported as > 100 µM (active) and the IC50 [2] is reported as > 100 µM (active).

In the case of `O=C(Cc1ccccc1[N+](=O)[O-])NCCc1ccc(F)cc1`, the IC50 [3] is reported as > 67.6 µM (inactive) and the EC50 [4] is reported as > 67.6 µM (inactive).

With `COc1ccc(S(=O)(=O)N(C)C[C@H]2OCc3ccccc3-c3c(n(C)c4ccccc34)C(=O)N([C@H](C)CO)C[C@H]2C)cc1` the AC50 [5] was 6.22 µM (active).

In the case of `COC(=O)C1=C(C)N(Cc2ccccc2C(F)(F)F)C(NCc2ccc(OC)cc2)=NC1c1cccc(Cl)c1` (stereo not drawn), the IC50 [6] is reported as > 96.6 µM (inactive).

With `Cc1ccc(S(=O)(=O)N(C)C[C@@H]2Oc3cc(C#CC4CCCC4)ccc3S(=O)(=O)N([C@@H](C)CO)C[C@H]2C)cc1` the AC50 [7] was 1.33 µM (active).

With `COc1ccc(C#Cc2ccc([C@@H]3[C@@H](CO)N4CCCCN(C(=O)Nc5ccccc5F)C[C@H]34)cc2)cc1` the AC50 [8] was 1.37 µM (active), the AC50 [9] was 1.45 µM (active) and the AC50 [10] was 1.89 µM (active). The AC50 [11] was 15.7 µM (active) and the AC50 [12] was 800 nM (active).

Work on `Cc1cccc(C(=O)Nc2nc3ccccc3n2C)c1` yielded an AbsAC90 [13] of 360.23 µM.

For `Clc1ccc(CCC(Cn2ccnc2)Sc2c(Cl)cccc2Cl)cc1` (stereo not drawn) [BUTOCONAZOLE NITRATE], the IC50 [14] was 3.01 µM (active), the CC50 [15] was 37.6 µM (active) and the IC50 [16] was 1.69 µM (active). For the same compound, the IC50 [17] was 2.3 µM (active), the IC50 [18] was > 20 µM (inactive) and the IC50 [19] was 1.84 µM (active). For the same compound, the IC50 [20] was 996 nM (active), the IC50 [21] was 7 µM (inactive) and the IC50 [22] was 221 nM (active). The IC50 [23] was 16 µM (inactive), the IC50 [24] was 2.06 µM (active) and the IC50 [25] was 841 nM (active). The AC50 [26] was < 195 nM (active).

In the case of `COc1cc(-c2ccc(=O)[nH]n2)ccc1OC(F)F` [ZARDAVERINE], the IC50 [27] is reported as > 10 µM (inactive) and the IC50 [28] is reported as > 10 µM (inactive).
